Experiments:
[1] = system: Lamina I/II spinal cord neurons; test: Lamina assay: current-clamp recordings on lamina I/II spinal cord neurons; assay type: cell-based, rat; details: lamina I and II neurons
Text: Male Wistar rats (P6 to P9 for voltage-clamp and P15 to P18 for current-clamp recordings) were anaesthetized through intraperitoneal injection of Inactin (Sigma). The spinal cord was then rapidly dissected out and placed in an ice-cold solution protective sucrose solution containing (in mM): 50 sucrose, 92 NaCl, 15 D-Glucose, 26 NaHCO3, 5 KCl, 1.25 NaH2PO4, 0.5 CaCl2, 7 MgSO4, 1 kynurenic acid, and bubbled with 5% CO2/95% O2. The meninges, dura, and dorsal and ventral roots were then removed from the lumbar region of the spinal cord under a dissecting microscope. The “cleaned” lumbar region of the spinal cord was glued to the vibratome stage and immediately immersed in ice cold, bubbled, sucrose solution. For current-clamp recordings, 300 to 350 μm parasagittal slices were cut to preserve the dendritic arbour of lamina I neurons, while 350 to 400 μm transverse slices were prepared for voltage-clamped Nav channel recordings. Slices were allowed to recover for 1 hour at 35° C. in Ringer solution containing (in mM): 125 NaCl, 20 D-Glucose, 26 NaHCO3, 3 KCl, 1.25 NaH2PO4, 2 CaCl2, 1 MgCl2, 1 kynurenic acid, 0.1 picrotoxin, bubbled with 5% CO2/95% O2. The slice recovery chamber was then returned to room temperature (20 to 22° C.) and all recordings were performed at this temperature. […]

[2] = target: T1, human Nav1.5 channel (Homo sapiens, UniProt Q14524); test: Nav1.5 sodium channel screening assay (PatchXpress, cardiac action potential waveform); assay type: cell-based
T1 construct: expressed in transfected cells; host or cells: HEK cells
T1 sequence (Q14524 whole entry): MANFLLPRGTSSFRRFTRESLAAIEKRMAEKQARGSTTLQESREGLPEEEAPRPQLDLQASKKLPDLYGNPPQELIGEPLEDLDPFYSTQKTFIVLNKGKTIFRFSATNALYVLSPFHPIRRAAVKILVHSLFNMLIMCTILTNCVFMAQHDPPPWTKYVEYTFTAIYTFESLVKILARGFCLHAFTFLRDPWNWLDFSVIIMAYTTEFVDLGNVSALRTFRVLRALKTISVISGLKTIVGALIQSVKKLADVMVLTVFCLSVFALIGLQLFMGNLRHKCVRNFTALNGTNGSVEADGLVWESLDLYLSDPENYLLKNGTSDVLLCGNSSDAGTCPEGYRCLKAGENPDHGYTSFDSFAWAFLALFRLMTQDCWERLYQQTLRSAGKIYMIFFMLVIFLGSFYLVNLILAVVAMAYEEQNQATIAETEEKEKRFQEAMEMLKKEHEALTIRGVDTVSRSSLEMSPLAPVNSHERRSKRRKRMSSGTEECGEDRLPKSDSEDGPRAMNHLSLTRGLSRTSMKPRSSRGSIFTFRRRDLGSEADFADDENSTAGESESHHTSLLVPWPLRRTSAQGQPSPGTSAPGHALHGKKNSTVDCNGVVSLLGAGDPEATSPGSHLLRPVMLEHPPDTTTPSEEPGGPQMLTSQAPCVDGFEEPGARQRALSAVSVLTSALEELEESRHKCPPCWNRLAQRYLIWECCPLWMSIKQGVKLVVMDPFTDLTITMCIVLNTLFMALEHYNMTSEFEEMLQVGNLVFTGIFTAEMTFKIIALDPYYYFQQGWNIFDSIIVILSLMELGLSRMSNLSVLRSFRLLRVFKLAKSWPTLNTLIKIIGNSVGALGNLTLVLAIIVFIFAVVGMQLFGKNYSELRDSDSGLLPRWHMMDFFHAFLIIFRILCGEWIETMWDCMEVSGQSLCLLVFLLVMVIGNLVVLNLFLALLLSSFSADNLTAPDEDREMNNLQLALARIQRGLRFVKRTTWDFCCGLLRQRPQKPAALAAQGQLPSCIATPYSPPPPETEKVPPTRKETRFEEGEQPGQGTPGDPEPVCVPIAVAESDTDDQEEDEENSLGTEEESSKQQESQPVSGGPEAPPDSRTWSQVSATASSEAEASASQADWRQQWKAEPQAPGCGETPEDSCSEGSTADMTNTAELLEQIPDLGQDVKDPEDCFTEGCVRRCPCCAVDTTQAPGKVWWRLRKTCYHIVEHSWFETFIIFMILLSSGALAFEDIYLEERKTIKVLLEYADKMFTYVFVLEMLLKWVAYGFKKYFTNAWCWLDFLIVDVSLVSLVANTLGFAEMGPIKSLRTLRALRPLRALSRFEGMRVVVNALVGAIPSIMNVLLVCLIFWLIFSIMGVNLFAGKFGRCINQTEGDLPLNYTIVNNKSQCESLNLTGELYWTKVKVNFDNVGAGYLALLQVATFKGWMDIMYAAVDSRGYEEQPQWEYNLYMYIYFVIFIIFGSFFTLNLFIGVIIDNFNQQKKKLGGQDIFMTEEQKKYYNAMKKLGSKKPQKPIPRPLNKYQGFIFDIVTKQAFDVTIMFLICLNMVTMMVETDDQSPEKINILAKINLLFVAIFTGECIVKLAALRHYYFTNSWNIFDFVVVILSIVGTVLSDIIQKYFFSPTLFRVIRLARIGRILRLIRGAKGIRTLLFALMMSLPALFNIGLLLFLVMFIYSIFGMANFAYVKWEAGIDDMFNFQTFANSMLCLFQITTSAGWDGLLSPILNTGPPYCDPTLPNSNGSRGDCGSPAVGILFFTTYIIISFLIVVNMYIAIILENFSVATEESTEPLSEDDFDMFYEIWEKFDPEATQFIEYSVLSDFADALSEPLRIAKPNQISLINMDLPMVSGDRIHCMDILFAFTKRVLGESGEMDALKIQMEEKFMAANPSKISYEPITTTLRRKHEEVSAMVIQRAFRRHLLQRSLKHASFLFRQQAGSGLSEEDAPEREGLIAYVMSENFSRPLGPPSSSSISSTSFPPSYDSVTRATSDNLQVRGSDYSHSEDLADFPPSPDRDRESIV
Protocol: Inhibition of the TTX-resistant Nav1.5 sodium channel, a key cardiac ion channel, can have profound effects on the duration and amplitude of the cardiac action potential and can result in arrhythmias and other heart malfunctions. To assess the potential cardiac liability of compounds at an early stage in the drug discovery process, a Nav1.5 sodium channel screening assay is performed on Molecular Device's PatchXpress™ automated electrophysiology platform. Under voltage-calmp conditions, Nav1.5 currents are recorded from HEK cells expressing the human Nav1.5 channel in the absence and presence of increasing concentrations of the test compound to obtain an IC50 value. The external recording solution contained (in mM): 90 TEACl, 50 NaCl, 1.8 CaCl, 1 MgCl2, 10 HEPES, 10 glucose, adjusted to pH 7.4 with TEA-OH and to 300 mOsm with sucrose (if necessary), while the internal patch pipette solution contained (in mM): 129 CsF, 2 MgCl2, 11 EGTA, 10 HEPES, 3 Na2ATP adjusted to pH 7.2 with CsOH and to 290 mOsm with sucrose (if necessary). Nav1.5 channel currents were evoked using a cardiac action potential waveform at 1 Hz, digitized at 31.25 kHz and low-pass filtered at 12 kHz.

[3] = Mouse rotarod assay; assay type: in vivo; details: mouse, in vivo, mice
Protocol: To assess a compound's undesirable side effects (toxicity), animals were monitored for overt signs of impaired neurological or muscular function. In mice, the rotarod procedure (Dunham and Miya, J. Am. Pharmacol. Assoc. 46:208-209 (1957)) is used to disclose minimal muscular or neurological impairment (MMI). When a mouse is placed on a rod that rotates at a speed of 6 rpm, the animal can maintain its equilibrium for long periods of time. The animal is considered toxic if it falls off this rotating rod three times during a […].

[4] = Rat Early Pharmacokinetic (EPK) study; assay type: in vivo; details: 3 mg/kg PO, PG (propylene glycol)
Protocol: Male Sprague-Dawley rats were dosed via oral (PO) gavage in the detailed formulation. Blood samples were collected from the animals at 6 timepoints out to 4 hours post-dose. Pharmacokinetic analysis was performed on the LC-MS/MS measured concentrations for each timepoint of each compound.

| Structure (SMILES) | % Spike Change (Mean; % change from control) [1] | Inhibition of the cardiac Nav 1.5 channel (statement) ([2]; HEK cells expressing human Nav1.5) | IC50 ([2]; cardiac action potential waveform at 1 Hz, read-out: HNAV 1.5 CARDIAC AP 1 Hz IC50) | TD50 [3] | Dose Normalized AUC [4] | Dose Normalized Cmax [4] | Tmax ([4]; male, Sprague-Dawley, blood) |
| --- | --- | --- | --- | --- | --- | --- | --- |
| O=C1CN(C(=O)CC(c2ccc(Cl)cc2)c2ccc(Cl)cc2)CCN1 [Compound 3, 4-(3,3-bis(4-chlorophenyl)propanoyl)piperazin-2-one] | 28.7% |  |  |  |  |  |  |
| O=C1CN(C(=O)CC(c2ccccc2)c2ccccc2)CCN1 [Compound 4, 4-(3,3-diphenylpropanoyl)piperazin-2-one] | −5.3% | did not act as inhibitors | ≥ 300 µM | 370 mg/kg | 522 nM·h | 832 nM | 15 min |

Reference: patent publication US8629149B2, “Oxopiperazine derivatives for the treatment of pain and epilepsy” (Zalicus Pharmaceuticals Ltd., priority 2009, dated 2014)
